# In patent US12091393B2, “Small molecule vaccine adjuvant for enhancing or prolonging immune response” (The Regents of the University of California, priority 2018, dated 2024):
# Where two headings read alike, the source gives them in different places.
# What was measured:
# NF-κB [1] = assay: Measurement of NF-κB activation using THP1-Blue NF-κB cells (SEAP); format: cell-based; conditions: for activity at 5 µM: 20 h, two point normalized, compound 1 as 200%; for NF-κB activity (SAR discussion, in words): evaluated in both the presence and absence of LPS
# THP-1 cells = assay: Cell viability assay (MTT); format: cell-based; conditions: compound 5 μM alone, 18 h, normalized to DMSO as 100%
# How it was run: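 THP-1 cells in RPMI/10% FBS got compound at a final 5 μM (0.05% DMSO) for 18 h. MTT (0.5 mg/mL) was then added for 4 to 6 h, followed by SDS/HCl lysis overnight. Absorbance was read at 570 nm against 650 nm reference.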
# NF-κB [2] = assay: cell-based NF-κB FRET assay; conditions: compound + LPS; two point normalized, compound 1 as 200%, LPS (10 ng/mL) as 100%
# Source text: Site A was assigned the 4-substituent of thiazole ring, site B was the thiazole ring itself, site C was the central amide bond in the structure, site D was the benzene ring bearing 1,4-carboxyl and sulfamoyl group, site E was the sulfonamide functional group and site F was the amide substituent on the sulfamoyl group.
# [3] = compound 5 μM + LPS, LPS (10 ng/mL) as 100%, read-out: NF-κB SEAP Compound + LPS % Activation
# [4] = compound 5 μM alone, LPS or DMSO as 100%, read-out: NF-κB SEAP Compound alone % Activation
SMILES,activity at 5 µM (NF-κB [1]; [3]) [%],activity at 5 µM (NF-κB [1]; [4]) [%],"NF-κB activity (SAR discussion, in words) (NF-κB [1])",MTT Compound alone % Viability (THP-1 cells) [%],NF-κB FRET Compound + LPS % Activation (NF-κB [2]) [%]
"Cc1ccc(C)c(-c2csc(C(=O)Nc3ccc(S(=O)(=O)N4CCCCC4)cc3)n2)c1 [Compound 34b, 4-(2,5-dimethylphenyl)-N-(4-(piperidin-1-ylsulfonyl)phenyl)thiazole-2-carboxamide]",104,98.8,weak activity,91.08,134.57
"Cc1ccc(C)c(-c2nc(NC(=O)c3ccc(S(=O)(=O)N4CCCCC4)cc3)sc2-c2ccco2)c1 [Compound 18j, N-(4-(2,5-dimethylphenyl)-5-(furan-2-yl)thiazol-2-yl)-4-(piperidin-1-ylsulfonyl)benzamide]",102,100,completely inactive,107.56,160.49
"CCCc1csc(NC(=O)c2ccc(S(=O)(=O)N3CCCCC3)cc2)n1 [Compound 12i, 4-(piperidin-1-ylsulfonyl)-N-(4-propylthiazol-2-yl)benzamide]",94.2,99.2,None of these molecules had any NF-κB activity,122.66,112.46
"CC(=O)N1CCN(S(=O)(=O)c2ccc(C(=O)Nc3nc(-c4cc(C)ccc4C)cs3)cc2)CC1 [Compound 58j, 4-((4-acetylpiperazin-1-yl)sulfonyl)-N-(4-(2,5-dimethylphenyl)thiazol-2-yl)benzamide]",101,101,inactive,72.09,90.73
"Cc1ccc(N=[N+]=[N-])cc1-c1csc(NC(=O)c2ccc(S(=O)(=O)N3CCCCC3)cc2)n1 [Compound 67, N-(4-(5-azido-2-methylphenyl)thiazol-2-yl)-4-(piperidin-1-ylsulfonyl)benzamide]",159,177,retained activity,90.50,168.96
"Cc1ccc2c(c1)-c1nc(NC(=O)c3ccc(S(=O)(=O)N4CCCCC4)cc3)sc1CC2 [Compound 12s, N-(8-methyl-4,5-dihydronaphtho[1,2-d]thiazol-2-yl)-4-(piperidin-1-ylsulfonyl)benzamide]",141,128,weakly active,102.16,159.62
"Cc1ccc(C)c(-c2nc(NC(=O)c3ccc(S(=O)(=O)N4CCCCC4)cc3)sc2C)c1 [Compound 18m, N-(4-(2,5-dimethylphenyl)-5-methylthiazol-2-yl)-4-(piperidin-1-ylsulfonyl)benzamide]",179,159,–,96.90,186.92
"C#CCN(CC)S(=O)(=O)c1ccc(C(=O)Nc2nc(-c3cc(C)ccc3C)cs2)cc1 [Compound 72b, N-(4-(2,5-dimethylphenyl)thiazol-2-yl)-4-(N-ethyl-N-(prop-2-yn-1-yl)sulfamoyl)benzamide]",109,105,lost their activity,81.42,129.85
"Cc1ccc(C)c(-c2csc(NC(=O)c3cccc(C(=O)N4CCCCC4)c3)n2)c1 [Compound 49d, N-(4-(2,5-dimethylphenyl)thiazol-2-yl)-3-(piperidine-1-carbonyl)benzamide]",112,99.6,none of these modifications at site D or E were tolerated,88.06,136.46
"Cc1ccc(C)c(-c2ccc(NC(=O)c3ccc(S(=O)(=O)N4CCCCC4)cc3)nc2)c1 [Compound 18c, N-(5-(2,5-dimethylphenyl)pyridin-2-yl)-4-(piperidin-1-ylsulfonyl)benzamide]",97.9,98.3,none of these molecules that replaced the thiazole functionality were active,92.06,73.65
"CCCN1CCN(S(=O)(=O)c2ccc(C(=O)Nc3nc(-c4cc(C)ccc4C)cs3)cc2)CC1 [Compound 58k, N-(4-(2,5-dimethylphenyl)thiazol-2-yl)-4-((4-propylpiperazin-1-yl)sulfonyl)benzamide]",110,101,inactive,50.85,100.84
"CCCCc1sc(NC(=O)c2ccc(S(=O)(=O)N3CCCCC3)cc2)nc1-c1cc(C)ccc1C [Compound 18s, N-(5-butyl-4-(2,5-dimethylphenyl)thiazol-2-yl)-4-(piperidin-1-ylsulfonyl)benzamide]",124,116,retained activity,141.98,176.96
"CCCCN(CCCC)S(=O)(=O)c1ccc(C(=O)Nc2nc(-c3cc(C)ccc3C)cs2)cc1 [Compound 58c, 4-(N,N-dibutylsulfamoyl)-N-(4-(2,5-dimethylphenyl)thiazol-2-yl)benzamide]",105,103,lost activity,86.41,104.47
"Cc1ccc(C)c(-c2ccc(NC(=O)c3ccc(S(=O)(=O)N4CCCCC4)cc3)cn2)c1 [Compound 18d, N-(6-(2,5-dimethylphenyl)pyridin-3-yl)-4-(piperidin-1-ylsulfonyl)benzamide]",97.2,98.2,none of these molecules that replaced the thiazole functionality were active,95.35,58.39
